Columns and labels:
Assay type in all cases: biochemical
Settings in all cases: recombinant human kinase domain, Caliper mobility shift
TYK2 = TYK2 (Homo sapiens (Human), UniProt P29597); assay: JAK Caliper enzyme assay at 1 mM ATP (TYK2)
Protocol: (§1) Compounds of the invention were evaluated by in vitro methods to determine their respective ability to inhibit the JAK kinases (TYK2, JAK1, JAK2, JAK3).
(§2) The human JAK inhibitory activity was determined by using a microfluidic assay to monitor phosphorylation of a synthetic peptide by the recombinant human kinase domain of each of the four members of the JAK family, JAK1, JAK2, JAK3 and TYK2. […] Each assay condition was optimized for enzyme concentration and room temperature incubation time to obtain a conversion rate of 20% to 30% phosphorylated peptide product. Reactions were terminated by the addition of stop buffer containing EDTA. Utilizing the LabChip 3000 mobility shift technology (Caliper Life Science), each assay reaction was sampled to determine the level of phosphorylation. This technology is separation-based, allowing direct detection of fluorescently labeled substrates and products. Separations are controlled by a combination of vacuum pressure and electric field strength optimized for each peptide substrate.
(§3) JAK Caliper Enzyme Assay at 1 mM ATP
(§4) Compounds were added to a 384-well plate. Reaction mixtures contained 10 mM HEPES, pH 7.4, 10 mM MgCl2, 0.01% BSA, 0.0005% Tween 20, 1 mM ATP and 1 μM peptide substrate. […] The assays were initiated by the addition of 20 nM JAK1, 1 nM JAK2, 1 nM JAK or 1 nM TYK2 enzyme and were incubated at room temperature for three hours for JAK1, 60 minutes for JAK2, 75 minutes for JAK3 or 135 minutes for TYK2. Enzyme concentrations and incubation times were optimized for each new enzyme preps and were modified slightly over time to ensure 20% to 30% phosphorylation. The assays were stopped with 15 μL of 180 mM HEPES, pH 7.4, 20 mM EDTA, and 0.2% Coating Reagent 3. The assay plates were placed on a Caliper Life Science LC3000 instrument, and each well was sampled using appropriate separation conditions to measure the unphosphorylated and phosphorylated peptide.
(§5) The data was collected using the HTS Well Analyzer software from Caliper Life Sciences. The data output for data analysis is the percent product converted calculated on peak height (Equation 1). % product converted=100*((product)/(product+substrate)) Equation 1: […]
(§6) The percent effect at each compound concentration was calculated based on the positive and negative control well contained within each assay plate (Equation 2). […] The negative control wells contained DMSO alone (at the same concentration as the compound wells) that was used to set the baseline activity in the assay (i.e., uninhibited JAK1, JAK2, JAK3 or TYK2). % effect=100*((sample well−negative control)/(positive control-negative control)) Equation 2: The percent effect was plotted against the compound concentration compound.

JAK1 = JAK1 (Homo sapiens (Human), UniProt P23458); assay: JAK Caliper enzyme assay at 1 mM ATP (JAK1)
Protocol: Compounds of the invention were evaluated by in vitro methods to determine their respective ability to inhibit the JAK kinases (TYK2, JAK1, JAK2, JAK3). The human JAK inhibitory activity was determined by using a microfluidic assay to monitor phosphorylation of a synthetic peptide by the recombinant human kinase domain of each of the four members of the JAK family, JAK1, JAK2, JAK3 and TYK2. […] Reactions were terminated by the addition of stop buffer containing EDTA. Utilizing the LabChip 3000 mobility shift technology (Caliper Life Science), each assay reaction was sampled to determine the level of phosphorylation. This technology is separation-based, allowing direct detection of fluorescently labeled substrates and products. Separations are controlled by a combination of vacuum pressure and electric field strength optimized for each peptide substrate. […] Compounds were added to a 384-well plate. […] Enzyme concentrations and incubation times were optimized for each new enzyme preps and were modified slightly over time to ensure 20% to 30% phosphorylation. […] The assay plates were placed on a Caliper Life Science LC3000 instrument, and each well was sampled using appropriate separation conditions to measure the unphosphorylated and phosphorylated peptide. The data was collected using the HTS Well Analyzer software from Caliper Life Sciences. […] The percent effect at each compound concentration was calculated based on the positive and negative control well contained within each assay plate (Equation 2). […] The percent effect was plotted against the compound concentration compound. […] Where max is the maximum asymptote (complete inhibition), min is the minimum asymptote (no inhibition) and s is the slope factor.

JAK2 = JAK2 (Homo sapiens (Human), UniProt O60674); assay: JAK Caliper enzyme assay at 1 mM ATP (JAK2)
Protocol: as §1, §2, §3, §4, §5, §6

JAK3 = JAK3 (Homo sapiens (Human), UniProt P52333); assay: JAK Caliper enzyme assay at 1 mM ATP (JAK3)
Protocol: as §1, §2, §3, §4, §5, §6

TYK2, sequence (P29597 897-1176): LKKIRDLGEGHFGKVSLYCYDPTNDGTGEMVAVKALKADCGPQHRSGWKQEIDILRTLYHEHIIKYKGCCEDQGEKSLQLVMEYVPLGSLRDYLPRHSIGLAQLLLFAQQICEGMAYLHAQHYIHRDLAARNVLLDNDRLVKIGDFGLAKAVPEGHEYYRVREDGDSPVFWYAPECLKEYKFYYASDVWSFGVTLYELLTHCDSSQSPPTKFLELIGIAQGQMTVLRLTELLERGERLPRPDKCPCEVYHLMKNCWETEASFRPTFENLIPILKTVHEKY
JAK1, sequence (P23458 875-1153): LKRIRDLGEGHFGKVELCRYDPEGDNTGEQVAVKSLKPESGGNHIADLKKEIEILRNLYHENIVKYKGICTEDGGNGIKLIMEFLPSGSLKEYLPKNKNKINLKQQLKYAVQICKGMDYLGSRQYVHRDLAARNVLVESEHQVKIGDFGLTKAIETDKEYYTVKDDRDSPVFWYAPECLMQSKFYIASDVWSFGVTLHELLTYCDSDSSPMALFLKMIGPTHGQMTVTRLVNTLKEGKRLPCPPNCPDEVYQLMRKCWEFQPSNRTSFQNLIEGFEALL
JAK2, sequence (O60674 849-1124): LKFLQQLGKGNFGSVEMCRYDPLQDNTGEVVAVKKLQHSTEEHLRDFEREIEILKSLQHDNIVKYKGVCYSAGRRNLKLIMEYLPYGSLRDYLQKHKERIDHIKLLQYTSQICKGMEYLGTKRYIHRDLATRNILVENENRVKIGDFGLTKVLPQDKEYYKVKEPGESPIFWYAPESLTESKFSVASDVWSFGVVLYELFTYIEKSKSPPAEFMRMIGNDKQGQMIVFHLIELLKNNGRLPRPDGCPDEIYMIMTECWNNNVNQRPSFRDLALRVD
JAK3, sequence (P52333 822-1111): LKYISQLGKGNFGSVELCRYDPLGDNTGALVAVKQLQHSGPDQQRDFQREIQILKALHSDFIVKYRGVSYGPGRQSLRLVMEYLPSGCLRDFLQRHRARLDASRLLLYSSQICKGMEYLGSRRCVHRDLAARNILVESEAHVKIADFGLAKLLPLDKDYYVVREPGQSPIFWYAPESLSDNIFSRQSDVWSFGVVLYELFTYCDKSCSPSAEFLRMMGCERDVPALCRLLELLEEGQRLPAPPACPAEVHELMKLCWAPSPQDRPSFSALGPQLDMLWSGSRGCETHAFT

| IC50 (TYK2) | IC50 (JAK1) | IC50 (JAK2) | IC50 (JAK3) | Compound |
| --- | --- | --- | --- | --- |
| 21 nM | 713 nM | 158 nM | > 10000 nM | Cc1cc(-c2cn3nccc3c(-c3cnn([C@]4(CC#N)C[C@@H](C#N)C4)c3)n2)n[nH]1 [Example 26, (1r,3r)-3-(Cyanomethyl)-3-(4-(6-(5-methyl-1H-pyrazol-3-yl)pyrazolo[1,5-a]pyrazin-4-yl)-1H-pyrazol-1-yl)cyclobutane-1-carbonitrile] |
| 38 nM | > 9860 nM | 324 nM | > 10000 nM | CO[C@H]1C[C@](CC#N)(n2cc(-c3nc(-c4cn(C)nc4CO)cn4nccc34)cn2)C1 [Example 31, 2-((1r,3s)-1-(4-(6-(3-(Hydroxymethyl)-1-methyl-1H-pyrazol-4-yl)pyrazolo[1,5-a]pyrazin-4-yl)-1H-pyrazol-1-yl)-3-methoxycyclobutyl)acetonitrile] |
| 580 nM | 5710 nM | 1600 nM | > 10000 nM | CCC(=O)N1CC(CC#N)(n2cc(-c3nc(-c4cnn(C)c4)cn4nccc34)cn2)C1 [Example 10, 2-(3-(4-(6-(1-Methyl-1H-pyrazol-4-yl)pyrazolo[1,5-a]pyrazin-4-yl)-1H-pyrazol-1-yl)-1-propionylazetidin-3-yl)acetonitrile] |
| 11 nM | 96 nM | 19 nM | 3260 nM | Cn1cc(-c2cn3nccc3c(-c3cnn([C@]4(CC#N)C[C@](C)(C#N)C4)c3)n2)cn1 [Example 34, (1s,3s)-3-(Cyanomethyl)-1-methyl-3-(4-(6-(1-methyl-1H-pyrazol-4-yl)pyrazolo[1,5-a]pyrazin-4-yl)-1H-pyrazol-1-yl)cyclobutane-1-carbonitrile] |
| 35 nM | 1730 nM | 205 nM | 10000 nM | C[C@H]1N(CC(F)(F)F)C[C@]1(CC#N)n1cc(-c2nc(-c3cnn(C)c3)cn3nccc23)cn1 [Example 17, 2-((2R,3S)-2-Methyl-3-(4-(6-(1-methyl-1H-pyrazol-4-yl)pyrazolo[1,5-a]pyrazin-4-yl)-1H-pyrazol-1-yl)-1-(2,2,2-trifluoroethyl)azetidin-3-yl)acetonitrile] |
| 136 nM | 1920 nM | 268 nM | > 10000 nM | Cn1cc(-c2cn3nccc3c(-c3cnn([C@]4(CC#N)C[C@@](C)(C#N)C4)c3)n2)cn1 [Example 35, (1r,3r)-3-(Cyanomethyl)-1-methyl-3-(4-(6-(1-methyl-1H-pyrazol-4-yl)pyrazolo[1,5-a]pyrazin-4-yl)-1H-pyrazol-1-yl)cyclobutane-1-carbonitrile] |
| 27 nM | 1360 nM | 249 nM | > 10000 nM | CO[C@H]1C[C@](CC#N)(n2cc(-c3nc(-c4cc(CO)[nH]n4)cn4nccc34)cn2)C1 [Example 28, 2-((1r,3s)-1-(4-(6-(5-(Hydroxymethyl)-1H-pyrazol-3-yl)pyrazolo[1,5-a]pyrazin-4-yl)-1H-pyrazol-1-yl)-3-methoxycyclobutyl)acetonitrile] |
| 55 nM | 1340 nM | 141 nM | > 10000 nM | Cn1cc(-c2cn3nccc3c(-c3cnn(C4(CC#N)CCC4)c3)n2)cn1 [Example 4, 2-(1-(4-(6-(1-Methyl-1H-pyrazol-4-yl)pyrazolo[1,5-a]pyrazin-4-yl)-1H-pyrazol-1-yl)cyclobutyl)acetonitrile] |
| 25 nM | 3550 nM | 432 nM | > 10000 nM | CO[C@H]1C[C@](CC#N)(n2cc(-c3nc(-c4cc(N)n(C)n4)cn4nccc34)cn2)C1 [Example 24, 2-((1r,3s)-1-(4-(6-(5-Amino-1-methyl-1H-pyrazol-3-yl)pyrazolo[1,5-a]pyrazin-4-yl)-1H-pyrazol-1-yl)-3-methoxycyclobutyl)acetonitrile] |
